Measured values taken from US9321782B2, “Process for preparation of novel 42-O-(heteroalkoxyalkyl) rapamicin compounds with anti-proliferative properties” (MERIL LIFE SCIENCES PVT. LTD., priority 2010, dated 2016).
Several values for one entry are separate records, joined by “and”; a condition that tells them apart may be missing. Equal values may be shown once.

How the values were obtained:
rabbit blood [1] = test: In-vitro haemolysis test; type: cell-based; settings: for Haemolytic Index, Mean ± S. D.: mean of three test extracts, rabbit blood, 4 hrs
Procedure: Haemolysis test was conducted on rabbit blood by in-vitro method to check the haemolytic effect of 42-O-(tetrahydrofuran-3-yl) rapamycin (Merilimus-1) compound and 42-O-(oxetan-3-yl) rapamycin (Merilimus-2) compound. In this study the extracts of the test substances in triplicate were kept in contact with rabbit blood and incubated for 4 hrs. The concentration of plasma haemoglobin liberated in supernatant was calculated by comparing with absorbance of the standard solution in a spectrophotometer at 540 nm.

[2] = tested on: L-929 (ATCC cell lines CCL-1, NCTC clone 929) Mus musculus mouse fibroblast cells; test: In-vitro cytotoxicity test by extraction method; type: cell-based; settings: extract in contact with L-929 cells for 48 hours
Procedure: In-vitro assessment was done to check the cytotoxic or necrotic potential of the 42-O-(tetrahydrofuran-3-yl) rapamycin and 42-O-(oxetan-3-yl) rapamycin compounds by extraction method. In this study extracts of test substance were kept in contact with a multiple culture of L-929 (ATCC cell lines CCL-1, NCTC clone 929) Mus musculus mouse fibroblast cells for 48 hours. The cells were examined microscopically to assess the changes for its general morphology, vacuolization, detachment, cell lysis and membrane integrity.

[3] = Stability analysis (HPLC purity on storage) with various concentrations of BHT at 40° C.; type: physicochemical; settings: sealed container
Procedure: (§1) To check the purity of the 42-O-(heteroalkoxyalkyl) rapamycin compounds the following condition was followed by using High Performance Liquid Chromatography, Phenomenex Synergi Hydro-RP 80a (250×4.6 ) mm, 4 micron column. The mobile phase was 65:15:20 methanol:acetonitile:water mixture. The detector was set at 276 nm and the flow rate was adjusted to 1.5 mL/min. Column temperature was 40° C. 2.0 μg of 42-O-(heteroalkoxyalkyl) rapamycin compounds was injected onto the column in a volume of 5.0 μL methanol with run time of 50 min.
The inventors have also conducted the stability study of various 42-O-(heteroalkoxyalkyl) rapamycin compounds as mentioned above using various BHT concentrations. The study was conducted at 40° C. temperature in sealed container for 8 weeks.
42-O-(heteroalkoxyalkyl) rapamycin compounds obtained as per procedure described in Example 1 are respectively added with anti-oxidant, namely Butylated Hydroxytoluene (or BHT), at a concentration of 0.1%, 0.2%, 0.5%, and 1.0% (w/w) based on 100% (w/w) of 42-O-(heteroalkoxyalkyl) rapamycin compounds in sealed container to study the stability at 40° C. temperature. […] The purity data with the addition of different amounts of anti-oxidant as added to 42-O-(tetrahydrofuran-3-yl) rapamycin compound, 42-O-(oxetan-3-yl) rapamycin compound and 42-O-(tetrahydropyran-3-yl) rapamycin compound checked at different time intervals are summarized in Table 2B as below mentioned.

[4] = tested on: rabbit illiac artery smooth muscle cell cultures (RbIASMCs); test: In-vitro anti-proliferative potency, BrdU assay, rabbit smooth muscle cells; type: cell-based; settings: BrdU incorporation, over 5 orders of magnitude concentration, compared with rapamycin
From the text: (§2) In-vitro assessment of relative anti-proliferative effect of novel mTOR inhibitors 42-O-(oxetan-3-yl) rapamycin compound and 42-O-(tetrahydrofuran-3-yl) rapamycin compound with rapamycin was done on human and rabbit smooth muscle cell culture models. In which, human aorta and rabbit illiac artery smooth muscle cell cultures were subjected to increasing doses of 42-O-(oxetan-3-yl) rapamycin compound 42-O-(tetrahydrofuran-3-yl) rapamycin compound and rapamycin over 5 orders of magnitude concentration in the cell culture medium. The ability of the cell culture to reproduce was assessed after drug exposure by addition of a BromodeoxyUridine (BrdU) coloured reagent which causes a colour change in the surviving cells. The extent of colour development was quantified at 450 nm wavelength using a spectrophotometer microplate reader (BMG Labtech, FLUOstar OPTIMA). […] On the contrary, lower OD values reflect less incorporation on BrdU and a shift towards cell inhibition. Growth inhibition was calculated by subtracting positive control OD values, which represent 100% uninhibited growth.

rabbit blood [5] = test: Haemocompatibility test (thrombosis, coagulation, platelet count, leucocyte count); type: cell-based
Procedure: Haemocompatibility test is conducted to evaluate biological safety of the blood contacting 42-O-([…]) rapamycin and 42-O-(oxetan-3-yl) rapamycin compounds for the medical device. The interaction of test substance with rabbit blood was checked for thrombosis, coagulation, platelet count and leucocyte count.

[6] = tested on: human aorta smooth muscle cell cultures (hAoSMCs); test: In-vitro anti-proliferative potency, BrdU assay, human smooth muscle cells; type: cell-based; settings: BrdU incorporation, over 5 orders of magnitude concentration, compared with rapamycin
From the text: as §2

[7] = Stability analysis (HPLC purity on storage) without BHT at various temperatures; type: physicochemical; settings: for Purity (%): without BHT
Procedure: as §1
The purity loss was higher at increased temperature, but there was no apparent change in the impurity profile. Table 2A presents the purity of various 42-O-(heteroalkoxyalkyl) rapamycin compounds at different time intervals and temperature conditions.

[8] = test group, individual rabbits No. 1-3

Purity (%) ([3]; BHT 0.0% (w/w), 0 week): 98.6% | Purity (%) ([3]; BHT 0.0% (w/w), 2 weeks): 96.7% | Purity (%) ([3]; BHT 0.0% (w/w), 4 weeks): 96.3% | Purity (%) ([3]; BHT 0.0% (w/w), 8 weeks): 94.7% | Purity (%) ([3]; BHT 0.1% (w/w), 0 week): 98.6% | Purity (%) ([3]; BHT 0.1% (w/w), 2 weeks): 98.5% | Purity (%) ([3]; BHT 0.1% (w/w), 4 weeks): 98.5% | Purity (%) ([3]; BHT 0.1% (w/w), 8 weeks): 98.4% | Purity (%) ([3]; BHT 0.2% (w/w), 0 week): 98.5% | Purity (%) ([3]; BHT 0.2% (w/w), 2 weeks): 98.5% | Purity (%) ([3]; BHT 0.2% (w/w), 4 weeks): 98.5% | Purity (%) ([3]; BHT 0.2% (w/w), 8 weeks): 98.4% | Purity (%) ([3]; BHT 0.5% (w/w), 0 week): 98.5% | Purity (%) ([3]; BHT 0.5% (w/w), 2 weeks): 98.4% | Purity (%) ([3]; BHT 0.5% (w/w), 4 weeks): 98.4% | Purity (%) ([3]; BHT 0.5% (w/w), 8 weeks): 98.3% | Purity (%) ([3]; BHT 1.0% (w/w), 0 week): 98.5% | Purity (%) ([3]; BHT 1.0% (w/w), 2 weeks): 98.4% | Purity (%) ([3]; BHT 1.0% (w/w), 4 weeks): 98.4% | Purity (%) ([3]; BHT 1.0% (w/w), 8 weeks): 98.3% | Purity after eight-weeks of storage ([3]; with various concentrations of BHT (concentration not given)): 98.3% | Haemocompatibility (in words) (rabbit blood [5]; all haematological findings compared to control): haemocompatible | Coagulation (PTT in sec.) (rabbit blood [5]; [8]): 36 sec. (2×) and 39 sec. | Differential leucocyte count: Basophile % (rabbit blood [5]; [8]): 00% | Differential leucocyte count: Eosinophil % (rabbit blood [5]; [8]): 01% | Differential leucocyte count: Lymphocyte % (rabbit blood [5]; [8]): 43% and 50% (2×) | Differential leucocyte count: Monocyte % (rabbit blood [5]; [8]): 01% (2×) and 02% | Differential leucocyte count: Neutrophil % (rabbit blood [5]; [8]): 55% and 47% and 48% | Distribution of cells: Platelets (rabbit blood [5]; [8]): Normal | Distribution of cells: RBC (rabbit blood [5]; [8]): Normal | Distribution of cells: WBC (rabbit blood [5]; [8]): Normal | Thrombosis (rabbit blood [5]; [8]): Nil | Stability (in words) ([7]; purified compounds without anti-oxidant): more thermally stable | Purity (%) ([7]; 5° C. (sealed), 00 weeks after synthesis): 98.6% | Purity (%) ([7]; 5° C. (sealed), 02 weeks after synthesis): 97.8% | Purity (%) ([7]; 5° C. (sealed), 04 weeks after synthesis): 97.0% | Purity (%) ([7]; 5° C. (sealed), 08 weeks after synthesis): 96.7% | Purity (%) ([7]; 5° C. (sealed), 12 weeks after synthesis): 96.3% | Purity (%) ([7]; 25° C. (sealed), 00 weeks after synthesis): 98.7% | Purity (%) ([7]; 25° C. (sealed), 02 weeks after synthesis): 97.6% | Purity (%) ([7]; 25° C. (sealed), 04 weeks after synthesis): 96.9% | Purity (%) ([7]; 25° C. (sealed), 08 weeks after synthesis): 96.7% | Purity (%) ([7]; 25° C. (sealed), 12 weeks after synthesis): 94.1% | Purity (%) ([7]; 25° C. (unsealed), 00 weeks after synthesis): 98.4% | Purity (%) ([7]; 25° C. (unsealed), 02 weeks after synthesis): 97.1% | Purity (%) ([7]; 25° C. (unsealed), 04 weeks after synthesis): 96.7% | Purity (%) ([7]; 25° C. (unsealed), 08 weeks after synthesis): 95.2% | Purity (%) ([7]; 25° C. (unsealed), 12 weeks after synthesis): 93.6% | Purity (%) ([7]; 40° C. (sealed), 00 weeks after synthesis): 98.6% | Purity (%) ([7]; 40° C. (sealed), 02 weeks after synthesis): 96.7% | Purity (%) ([7]; 40° C. (sealed), 04 weeks after synthesis): 96.3% | Purity (%) ([7]; 40° C. (sealed), 08 weeks after synthesis): 94.7% | Purity (%) ([7]; 40° C. (sealed), 12 weeks after synthesis): 93.5%
SMILES: COC1CC(C[C@H](C)[C@@H]2CC(=O)[C@H](C)/C=C(\C)C(O)[C@@H](OC)C(=O)[C@H](C)C[C@H](C)/C=C/C=C/C=C(\C)[C@@H](OC)C[C@@H]3CC[C@@H](C)[C@@](O)(O3)C(=O)C(=O)N3CCCC[C@H]3C(=O)O2)CCC1OC1CCOC1 (some centres unmarked) [Merilimus-1, 42-O-(tetrahydrofuran-3-yl) rapamycin]
Haemolytic Index (rabbit blood [1]; individual test extracts 1-3, rabbit blood, incubated 4 hrs, = Haemoglobin released/Haemoglobin present × 100): 1.4 and 1.7 and 1.9 | Haemolytic Index, Mean ± S. D. (rabbit blood [1]): 1.7 ± 0.02 | Haemolytic Index, Mean ± S. D. (rabbit blood [1]; listed as 42-O-(tetrahydrofuran-3-yl) rapamycin): 1.7 | Haemolytic nature (in words) (rabbit blood [1]; on the basis of haemolytic index): non-haemolytic | Toxic effect on cells (in words) [2]: did not reveal any toxic effect on cells | Growth suppression of smooth muscle cells (in words) [4]: more effectively inhibited growth of smooth muscle cells than rapamycin | Leucocyte count (rabbit blood [5]; [8]): 7.3 Thousand/cmm and 6.8 Thousand/cmm and 7.4 Thousand/cmm | Platelet count (rabbit blood [5]; [8]): 4.9 lakhs/cmm and 4.6 lakhs/cmm and 4.5 lakhs/cmm | Growth suppression of smooth muscle cells (in words) [6]: more effectively inhibited growth of smooth muscle cells than rapamycin
